“Also recorded” adds a separate entry of the source.

The test system of data set [1] is Saccharomyces cerevisiae, Yarrowia lipolytica and Candida bombicola. Briefly: Tolerance to microbial hydrolysis: yeast strains incubated in YPD with 1 mg/ml compound, supernatants analysed by HPLC. Format: cell-based. Conditions: after 3 days. How it is done: Yeast strains Saccharomyces cerevisiae, Yarrowia lipolytica and Candida bombicola, were incubated in YPD supplemented with 1 mg/ml Mogroside V or Compound 1. After 3 days, supernatants were analyzed by HPLC.

Another data set deals with Y. lipolytica. Briefly: Hydrolysis by hydrolytic enzymes of yeast grown in the presence of the compound, HPLC of lysed cells. Format: cell-based. As for the experimental part: (§1) S. cerevisiae or Y. lipolytica was grown in the presence of Mogroside V to allow the hydrolytic enzymes in the yeast to generate Mogroside IIIE. After 1 or 2 days, the cells were lysed in analyzed by HPLC to determine the mogroside content.
(§2) S. cerevisiae or Y. lipolytica was grown in the presence of Compound 1.

The next data set has as its system S. cerevisiae. The data set is described as above. The data set is classed as cell-based. The note with it: for mogroside content after incubation: S. cerevisiae. As for the experimental part: as §1, §2
For another data set, the system named is mogrol precursors. Briefly: Mogrol production by EPHs tested in a yeast strain producing mogrol precursors. The data set is classed as cell-based. The source says:
DNA was obtained through gene synthesis either through Genescript, IDT, or Genewiz. For some of the cucurbitadienol synthases, cDNA or genomic DNA was obtained through 10-60 day old seedlings followed by PCR amplification using specific and degenerate primers. DNA was cloned through standard molecular biology techniques or through yeast gap repair cloning (Joska et al., 2014) into one of the following overexpression vectors: pESC-Ura, pESC-His, or pESC-LEU. Gene expression was regulated by one of the following promoters; Gall, Gal10, Tef1, or GDS. Yeast transformation was performed using Zymo Yeast Transformation Kit II. Yeast strains were grown in standard media (YPD or SC) containing the appropriate selection with 2% glucose or 2% galactose for induction of heterologous genes. Yeast strains were grown in shake flask or 96 well plates at 30° ° C., 140-250 rpm. When indicated, lanosterol synthase inhibitor, Ro 48-8071 (Cayman Chemicals) was added (50 ug/ml). […]

Data set [2] concerns cucurbitadienol synthase activity. Briefly: Cucurbitadienol synthase activities of fusion proteins in yeast strain with oxidosqualene boost, LCMS. The data set is classed as cell-based, S. cerevisiae. The note with it: average % activities over the average activities of the parent enzyme (Cucumis melo cucurbitadienol synthase). How it is done: For analyzing cucurbitadienol, the first LCMS method included the use of C4 2.1×100 mm column, gradient 1 to 95% B for 6 minutes, and at flow rate of 0.55 ml/min; and the second LCMS method included the use of Waters Acquity UPLC Protein BEH C4 2.1×100 […], 1.7 μm, with guard, 62 to 67% B for 2 min, 100% B for 1 min, and at flow rate of 0.9 ml/min and ESI source positive single ion monitoring of 427 and 409.
The gene encoding for a cucurbitadienol synthase form Cucumis melo was codon optimized (SEQ ID: 907) and used as a starting point for generating a library of modifications. Modifications were introduced through standard molecular biology techniques consisting of fusion peptides at the N-terminus (i.e., 5′) or C-terminus (i.e., 3′) end of the enzyme. Plasmids libraries of modified cucurbitadienol synthase genes were transformed into a yeast strain with oxidosqualene boost. Enzyme activities were measured by ratios of peak heights or areas of 409 and 427 positive mass fragments at the expected retention times for cucurbitadienol vs. an internal standard using LCMS method 2 described above. Enzyme performance were scored as average % activities over the average activities of the parent enzyme (n=8). Step 1 sequences of the enzymes and the sequences that encode the enzyme can be found in SEQ ID NOs: 951-1012. Step 1 sequence also include the fusions SS2c-G10, SS2e-A7b, SS2d-G11. […]

For the molecule `C[C@H](CC[C@@H](O[C@@H]1O[C@H](CO[C@H]2O[C@H](CO)[C@@H](O)[C@H](O)[C@H]2O)[C@@H](O)[C@H](O)[C@H]1O[C@@H]1O[C@H](CO)[C@@H](O)[C@H](O)[C@H]1O)C(C)(C)O)C1CC[C@@]2(C)C3CC=C4C(CC[C@H](O[C@@H]5O[C@H](CO)[C@@H](O)[C@H](O)[C@H]5O)C4(C)C)[C@]3(C)[C@H](O)C[C@]12C` (stereo partly drawn) [Compound 1], the “hydrolysis by yeast strains (hydrolysis products by HPLC)” value in data set [1] is recorded as “no hydrolysis products observed; also recorded: tolerance of Compound 1 to hydrolysis by microbial enzymes”. Besides, the hydrolysis products result in the data set with Y. lipolytica (Y. lipolytica grown in the presence of the compound) and in the data set with S. cerevisiae (S. cerevisiae grown in the presence of the compound) was “no hydrolysis products due to hydrolysis of Compound 1 was observed; also recorded: no hydrolysis product from Compound 1 was detected” in each case.

Regarding `C[C@H](CC[C@@H](O[C@@H]1O[C@H](CO[C@@H]2O[C@H](CO)[C@@H](O)[C@H](O)[C@H]2O)[C@@H](O)[C@H](O)[C@H]1O[C@@H]1O[C@H](CO)[C@@H](O)[C@H](O)[C@H]1O)C(C)(C)O)[C@H]1CC[C@@]2(C)[C@@H]3CC=C4[C@@H](CC[C@H](O[C@@H]5O[C@H](CO[C@@H]6O[C@H](CO)[C@@H](O)[C@H](O)[C@H]6O)[C@@H](O)[C@H](O)[C@H]5O)C4(C)C)[C@]3(C)[C@H](O)C[C@]12C` [Mogroside V, reference compound], the “hydrolysis by yeast strains (hydrolysis products by HPLC)” value in data set [1] was “hydrolyzed Mogroside V to Mogroside IIIE”. The “mogroside content after incubation” value in the data set on Y. lipolytica (Y. lipolytica, 2 days of incubation) is “produced mostly Mogroside IIIE”; with S. cerevisiae (1 day of incubation) it was “produced a mixture of Mogroside V, Mogrosides IV, and Mogroside IIIE”; in the data set on S. cerevisiae (2 days of incubation), “substantially all of the mogrosides were converted to Mogroside IIIE”.

B1: SEQ ID NO. 1072 and 1073: epoxide hydrolase (EPH); coding DNA and protein sequence (protein)
chain: MDAIQHTTIKTNGIKMHIASVGNGPVVLLLHGFPELWYSWRHQLLYLSSVGYRAIAPDLRGYGDTDSPESHTSYTALHIVGDLVGALDELGIEKVFLVGHDWGAIIAWYFCLFRPERIKALVNLSVQFFPRNPAISFIQRFRAAYGDDFYMCRFQVPGEAEADFACIDTAQLFKTTLSNRSTKAPCLPKEYGFRAIPPPENLPSWLTEEDINYYAAKFKETGFTGALNYYRAFDLTWELTAPWTGVQIQVPVKFIVGDSDLTYHFKGAKEYIHEGGFKRDVPLLEEVVIVENAGHFVHEEKPHEINTHIHDFIKKF
modifications: Cucumis melo
As for B1, the “ability to produce mogrol” value in the data set with mogrol precursors is on record as “showed the ability to produce mogrol”.

B2: SEQ ID NO 1024: fusion protein having cucurbitadienol synthase activity (protein, listed as Citrullus lanatus)
chain: MWTILLGLATLAIAYYIHWVNKWKDSKFNGVLPPGTMGLPLIGETIQLSRPSDSLDVHPFIQSKVKRYGPIFKTCLAGRPVVVSTDAEFNHYIMLQEGRAVEMWYLDTLSKFFGLDTEWLKALGLIHKYIRSITLNHFGAESLRERFLPRIEESARETLHYWSTQPSVEVKESAAAMVFRTSIVKMFSEDSSKLLTGGLTKKFTGLLGGFLTLPLNLPGTTYNKCIKDMKEIQKKLKDILEERLAKGTGNDEDFLGQAIKDKESQQFISEEFIIQLLFSISFASFESISTSLTLILKFLADHPQVVKELEAEHEAIQKARADPDGPITWEEYKSMTFTLNVISETLRLGSVTPALLRKTTKEIQIKGYTIPEGWTVMLVTASRHRDPEVYKDPDTFNPWRWKELDSITVQKNFMPFGGGLRHCAGAEYSKVYLCTFLHILFTKYRWTKLKGGKIARAHILRFEDGLHVKFTPKE
Take B2: the “Activity (as compared to the parent)” value in data set [2] came out at 166%.
